Measurements: US20080145340A1, “Neuroactive agents and methods of their use” (The University of Western Australia, priority 2005, published 2008)

Experiments:
Format in all cases: cell-based, rat
[1] = tested on: cortical neuronal cultures; assay: Differential protein expression in preconditioned neuronal cultures, 2-D gel electrophoresis (Example 1); conditions: CHX 0.3 μg/ml for 24 h; MK801 1 μM for 30 min, then 12 h; versus untreated DIV 12 cultures
Experimental: Cortical tissue from E18-E19 rats was dissociated in Hibernate E medium (Invitrogen, Carlsbad, Calif., USA) supplemented with 1.3 mM L-cysteine, 10 units/ml papain (ICN, Costa Mesa, Calif., USA) and 50 units/ml DNase (Sigma, St. Louis, Mo., USA) and washed in cold Dulbecco's Modified Eagle Medium (Invitrogen)/10% horse serum.
Neurons were resuspended in Neurobasal (NB; Invitrogen)/2% B27 supplement (Invitrogen), the cell concentration was adjusted to 1.8 million neurons/2 ml and 2 ml inoculated into each well of a 6 well plate pretreated as described below.
Neuronal cultures were maintained in a CO2 incubator (5% CO2, 95% air balance, 98% humidity) at 37° C. […]
Total protein was isolated from control and preconditioned neuronal cultures at the times outlined above by removing all the media from wells and washing once with phosphate-buffered saline, before the addition of lysis buffer (7M urea, 2M thiourea, 40 mM tris-HCl, 1% sulfobetaine 3-10, 2% CHAPS, 65 mM DTT, 1% Bio-Lyte carrier ampholytes pH 3-10; Bio-Rad, Hercules, Calif., USA). […] Protein content was determined by amino acid analysis using Waters AccQ Tag chemistry (Millipore Corporation, Milford, Mass., USA) as previously described (Cohen et al., 1983, in: Angeletti, R. H. (Ed.), Techniques in Protein Chemistry IV, Academic Press, San Diego). […]

[2] = tested on: cortical neuronal cultures; assay: Cumene hydroperoxide oxidative stress, neuronal survival by MTS assay (Example 4); conditions: for neuronal survival following cumene exposure: cumene 25 μM, survival 24 h later, untreated 15%, FIG. 8A
Experimental: (§1) Neurons were resuspended in Neurobasal (NB; Invitrogen) containing 2% B27 supplement (B27; Invitrogen).
(§2) Neuronal cultures were maintained in a CO2 incubator (5% CO2, 95% air balance, 98% humidity) at 37° C.

[3] = tested on: primary cortical neuronal cultures; assay: In vitro ischaemia/stroke model, transient oxygen glucose deprivation (Example 3); conditions: protein added (0.1-100 nM) at the time of in vitro ischaemia
[4] = tested on: primary cortical neuronal cultures; assay: Cumene oxidative stress injury model (Example 3); conditions: protein added (0.1-100 nM) at the time of cumene exposure
Excerpt: Adenovirus vectors were used to upregulate specific proteins in primary cortical neuronal cultures. cDNA for proteins of interest was obtained by RT-PCR and cloned into pGEM. Sequence verified cDNA clones were then used to construct recombinant adenoviruses expressing genes of interest under the control of the rous sarcoma virus (RSV) promoter and the woodchuck post-transcriptional regulatory element (WPRE). The recombinant viruses also express the reporter GFP under the control of the CMV promoter. Protein of interest expression in recombinant adenoviruses was confirmed in transfected HEK and/or neuronal cultures. Control viruses consisted of an adenovirus expressing RFP, no gene (empty vector) and the anti-apoptotic gene Bcl-xl. […]
Cumene induced oxidative stress was performed by removing media from neuronal culture wells and adding 100 μl DMEM/N2 medium containing different concentrations of cumene (20-25 μM). […] Neuronal viability was measured and analysed as described above.

[5] = tested on: ERK1 (p44); assay: rhCyPA mediated ERK1/2 phosphorylation time course, Western blot densitometry; conditions: rhCyPA 100 nM
Experimental: (§3) FIG. 7—time course of recombinant human (rh) CyPA mediated ERK1/2 phosphorylation in cortical neuronal cultures. Neuronal cultures were treated with rhCyPA (100 nM) for the indicated times. The resulting protein lysates were probed with antibody to detect phosphorylated ERK1/2 and then re-probed for total ERK1/2.
(§4) For protein extraction, brain tissue and cultured cells were lysed in buffer (50 mM Tris-HCl pH 7.5, 100 mM NaCl, 20 mM EDTA, 0.1% SDS, 0.2% deoxycholic acid, containing Complete™ protein inhibitor, Roche), vortexed briefly and clarified by centrifugation at 4° C. Protein concentrations were determined by the Bradford assay (Biorad, USA). Equivalent amounts of protein (5-10 μg per lane) were loaded and separated on 4-12% gradient SDS poly-acrylamide Bis-Tris mini-gels, (NuPAGE; Invitrogen) and transferred to a PVDF membrane. Membranes were blocked in PBS/T containing ovalbumin (1 mg/mL) for 1 min at room temperature before washing in PBS/T and PBS.
(§5) Membranes were incubated at 4° C. overnight in blocking solution containing primary antibody, washed and incubated in blocking solution containing HRP conjugated secondary antibody for 1 h at room temperature. Protein bands were detected using ECL Plus (Amersham, UK) and visualised by exposure to x-ray film (Hyperfilm; Amersham), scanned and quantified using NIH image. Primary antibodies used were; rabbit polyclonal anti-CyPA (1:25000; Biomol), mouse monoclonal anti-β-tubulin (0.5 μg/mL, Pharmingen, USA), mouse monoclonal anti-phospho ERK1/2 (1:5000; Santa Cruz), rabbit polyclonal anti-ERK1/2 (1:10000; Santa Cruz) and goat polyclonal anti-CD147 (1:10000; Santa Cruz). Secondary antibodies were donkey anti-rabbit IgG (1:25,000-1:50,000; Amersham), sheep anti-mouse IgG (1:10,000-1:20,000; Amersham) and rabbit anti-goat IgG (Zymed).
(§6) To determine if exogenously applied CyPA can mediate ERK1/2 activation we exposed neuronal cultures to rhCyPA protein (100 nM) and the results are summarised in FIG. 7. Addition of rhCyPA induced a rapid phosphorylation of ERK1 and ERK2, which peaked at 5 min, before returning to basal levels.

[6] = tested on: ERK2 (p42); assay: as above; conditions: rhCyPA 100 nM
Experimental: as §3, §4, §5, §6

[7] = tested on: cortical neuronal cultures; assay: In vitro ischemia, neuronal survival by MTS assay (Example 4); conditions: rhCyPA 100 nM; survival 24 h later; untreated 24%; FIG. 8B
Experimental: as §1, §2

Compound: C[C@]12N[C@H](Cc3ccccc31)c1ccccc12 [MK801]
- overall change of protein expression after preconditioning [1]: protein down-regulation

Compound: CC(C)c1ccccc1.OO [cumene, cumene hydroperoxide, reference compound]
- cell survival after exposure to cumene ([2]; 25 μM cumene, dose response experiment, data not shown): 15-30%

Compound: CyPA protein: CyPA protein suspended in PBS, added to neuronal cultures (0.1-100 nM)
- neuroprotection against in vitro ischaemia [3]: neuroprotective
- neuroprotection against cumene insult [4]: neuroprotective

Compound: rhCyPA: recombinant human cyclophilin A (rhCyPA, Biomol)
- ERK1 (p44) activation increase ([5]; at 5 min, FIG. 7): 2.6 fold
- time of peak phosphorylation of ERK1 ([5]; then returning to basal levels): 5 min
- ERK2 (p42) activation increase ([6]; at 5 min, FIG. 7): 3.3 fold
- time of peak phosphorylation of ERK2 ([6]; then returning to basal levels): 5 min
- neuronal survival following cumene exposure ([2]; rhCyPA 10 nM): 56%
- neuronal survival following cumene exposure ([2]; rhCyPA 100 nM): 70%
- neuronal survival following in vitro ischemia [7]: 35%

Compound: C[C@@H]1C[C@@H]([C@H](O)CC2CC(=O)NC(=O)C2)C(=O)[C@@H](C)C1 [CHX, cycloheximide]
- overall change of protein expression after preconditioning [1]: protein down-regulation
